These results are taken from PubChem BioAssay AID489041 (Sanford-Burnham Center for Chemical Genomics, 2010).

Calls of active or inactive are those of the source. No rule for the calls is given here.

For the experiment, the system named is HEK-293T NF-kB luciferase reporter counterscreen, luminescence. Put plainly: inhibitors of HEK-293T NF-kB luciferase – HEK-293T cells, luminescence, counter-screen for T-cell antigen receptor NF-kB inhibitors, dose response (AID 489041).
By IC50 is commonly meant the concentration at which inhibition is half-maximal. Turning to `COc1cc(NS(=O)(=O)c2ccc(C)cc2)c2ncccc2c1`, the IC50 was 1.65 µM.
On to `CN(C)c1ccc(-[n+]2c(-c3ccccc3)cc(-c3ccccc3)cc2-c2ccccc2)cc1`, for which the IC50 is 1.48 µM.
Then `O=C(Nc1ccncc1)c1ccc(Cl)c(S(=O)(=O)N2CCc3ccccc32)c1`, with 1.49 µM; and `O=C(COc1ccc(C(=O)c2ccccc2)cc1)NCc1ccc(F)cc1`, with 6.31 µM.
Then `Nc1ncn([C@@H]2O[C@H](CO)[C@@H](O)[C@H]2O)c(=O)n1`, with 4.76 µM; and `O=C(NN=Cc1c(O)ccc2ccccc12)c1ccc2c(c1)OCO2`, with 0.74 µM.
Under `Nc1nc(-c2ccccc2)cc(N2CCCCC2)n1` stands 2.23 µM; under `O=S1(=O)C=C(Sc2nc3cc(Cl)ccc3o2)c2ccccc21`, 20.8 µM (inactive).
In the case of `CC(=O)NC(c1ccc2ccccc2c1)c1ccc2cccnc2c1O` (configuration not stated), the IC50 was 41.3 µM (inactive).
Under `CCSc1nc2ccccc2n1C(=O)/C=C\c1ccc(OC)c(OC)c1` stands 18.2 µM; under `Oc1ccc2ccccc2c1/C=N/Nc1nnc(-c2ncc[nH]2)c2ccccc12`, 0.52 µM.
Under `Cn1ncc2c(N3CCN(c4ccc(Cl)c(Cl)c4)CC3)ncnc21` stands 1.29 µM.
Then `CCCCCCCOc1ccc(OC(=O)c2ccncc2)cc1`, with > 80 µM (inactive); and `CN(C)S(=O)(=O)c1ccc(Nc2nc(C3CC3)nc3c2nnn3Cc2ccccc2Cl)cc1`, with 4.04 µM.
`CCOC(=O)CSC1=C(C#N)C(c2ccc(C)s2)CC(=O)N1` (configuration not stated): the IC50 was 3.78 µM.
Then `O=C(Nc1ccc(S(=O)(=O)N2CCN(Cc3ccccc3)CC2)cc1)c1cnccn1`, with 1.51 µM; and `CCOC(=O)COc1cccc2c(=O)n(CC(=O)NCc3ccccc3)ccc12`, with 0.63 µM; and `Cc1c(C(=O)OC2CCCC2)[nH]c2c1C(=O)CC(c1ccco1)C2` (configuration not stated), with 0.45 µM.
Under `CCn1c2ccccc2c2cc(NC(=O)c3cc(OC)cc(OC)c3)ccc21` stands > 80 µM (inactive); under `Cc1ccc(C(=O)Nc2cnc3ccccc3c2)cc1`, 0.83 µM.
Then `CCOC(=O)c1[nH]c(C)c(C(=O)Nc2ccc(C)cc2C)c1C`, with 46.1 µM (inactive); and `Cc1cccc(N2CCN(C(=O)c3c(-c4ccccc4)noc3C)CC2)c1C`, with 11.1 µM.
Consider `COc1cc(C(=O)Nc2ccc3c(c2)CCN3C(C)=O)cc(OC)c1OC`, for which the IC50 was 4.83 µM.
Then `COc1ccc(OC)c(-c2nnc3n2N=C(c2ccc(OC)c(OC4CCCC4)c2)CS3)c1`, with 3.09 µM; and `COc1ccc(C(=O)/C(C#N)=N/Nc2ccc([N+](=O)[O-])cc2)cc1`, with 0.32 µM; and `CCc1ccc(N2C(=O)C(Cl)=C(Nc3ccc(C(=O)N4CCCC4)cc3)C2=O)cc1`, with 66.9 µM (inactive).
Under `COc1ccccc1-c1nnc2n1N=C(c1ccc(O)c(O)c1)CS2` stands 2.41 µM; under `COc1ccc(NS(=O)(=O)c2cc(-c3cnc(C4CC4)o3)ccc2C)cc1`, 9.37 µM.
Under `C/C(=N\NC(=O)c1cc(C)nc2ccccc12)c1ccccn1` stands 3.06 µM; under `Clc1cccc(Cl)c1/C=N/Nc1c(Cl)cncc1Cl`, 36.7 µM (inactive); under `CC(Oc1ccc(Cl)cc1Cl)C(=O)Nc1ccncc1` (configuration not stated), 6.73 µM.
As to `CCC(=O)NC(c1ccc(C)cc1)c1ccc2cccnc2c1O` (configuration not stated), the IC50 is 0.73 µM.
Under `CCOc1ccccc1C(=O)Nc1ccc2nc(N3CCN(c4ncccn4)CC3)cc(C)c2c1` stands 15.2 µM; under `COc1ccccc1N1CCN(C(=O)c2cc(=O)c3cc(C)cc(C)c3o2)CC1`, 76 µM (inactive); under `CCOc1ccccc1NC(=O)Cn1nnc(C(=O)NCc2ccco2)c1N`, 26.3 µM (inactive).
Then `Cc1ccc(C(=O)Nc2cccc(C(=O)O)c2)cc1`, with 4.1 µM; and `CC(=O)Nc1ccc(S(=O)(=O)N2CCSc3ccccc32)cc1`, with 21.3 µM (inactive); and `C=C1C(O)[C@@H]2O[C@]3(CC[C@H](/C=C/C(C)[C@@H]4CC(C)=CC5(O[C@H](C[C@@](C)(O)CO)CCC5O)O4)O3)CC[C@H]2O[C@@H]1C(O)CC(C)[C@H]1OC2(CCCCO2)CCC1C` (some centres not stated), with < 0.16 µM.
Then `CN(Cc1ccccc1)C1=CC(=[N+]2CCCCC2)CC(C)(C)C1`, with 0.73 µM; and `NS(=O)(=O)c1ccc(Sc2nc3ccccc3s2)c([N+](=O)[O-])c1`, with 7.35 µM; and `Cc1cc(C)c(CN2CCN(C(=O)Cn3cnc4c(OCc5ccccc5)ncnc43)CC2)c(C)c1`, with 2.6 µM.
As for `O=C(Nc1ccn(Cc2ccccc2F)n1)c1ccc(COc2ccc(Br)cc2)cc1`, the IC50 is 1.55 µM.
Regarding `O=C(Nc1ccc(F)cc1)c1ccc(CN2CCc3ccccc3C2)cc1`, the IC50 was 4.71 µM.
Take `CCn1ncc(C2=NOC(C(=O)NCc3ccc(Cl)cc3)C2)c1C` (configuration not stated): the IC50 was 26 µM (inactive).
Then `C=C(C)C(=O)O[C@H]1C/C(C)=C\C(=O)/C=C(\C)[C@H](O)[C@@H]2OC(=O)C(=C)[C@@H]21`, with 19.7 µM; and `COC(=O)c1cn(NC(=O)c2cc([N+](=O)[O-])ccc2F)c(=O)c2ccccc12`, with 4.34 µM.
Under `CC1=CC(C)(C)N(S(=O)(=O)c2ccc(C)cc2)c2cc(C)ccc21` stands 2.17 µM; under `Oc1ccc2ccccc2c1N=Nc1ccccn1`, > 80 µM (inactive); under `CCN(CC)c1ccc(/C=C/c2ccc3ccc(OC)cc3[n+]2CC)cc1`, 0.72 µM.
Under `CC[n+]1cc(C)ccc1/C=C/c1ccc(N(C)C)cc1` stands 3.97 µM; under `CC(C)c1ccc(/C=N/Nc2ccc(C(=O)O)cc2)cc1`, 4.37 µM.
Regarding `CC(=O)N1c2ccc(S(=O)(=O)N3CCC(C(=O)Nc4cccc(C)n4)CC3)cc2CC1C` (configuration not stated), the IC50 is 5.57 µM.
Turning to `CCOC(=O)c1ccc(Nc2nc(N)c3cc(OC)c(OC)cc3n2)cc1`, the IC50 is > 80 µM (inactive).
Under `O=C(c1cn(Cc2ccccc2)nc1-c1ccccc1)N1CCN(c2ccccn2)CC1` stands > 80 µM (inactive); under `COc1ccccc1N1CCN(C(=O)c2ccc(-c3ccc(Cl)cc3)o2)CC1`, 10.1 µM; under `COc1ccc(OCC(=O)Nc2ccccc2N2CCCCC2)cc1`, 12 µM.
Under `O=C(Nc1nc(-c2ccccn2)cs1)c1ccc(Cl)s1` stands 4.44 µM; under `CCCOc1ccc(/C=N/Nc2cc(N3CCOCC3)ncn2)c(O)c1`, 0.38 µM; under `COc1ccc(CC(=O)Nc2nc(-c3ccc(F)c(F)c3)cs2)cc1OC`, 2.87 µM.
Then `O=C(Nc1cccc(C(F)(F)F)c1)c1sc(Cl)nc1C(F)(F)F`, with 40.6 µM (inactive); and `COc1cccc(/C=N/Nc2ccc(C(=O)O)cc2)c1O`, with 0.41 µM.
For `COc1ccc(CCN2C(=O)C3C4C=CC(C3C2=O)C2C(=O)N(CCc3ccc(OC)c(OC)c3)C(=O)C42)cc1OC` (configuration not stated), the IC50 was 5.01 µM.
Take `c1ccc(-c2noc(-c3ccc4c(c3)OCO4)n2)nc1`: the IC50 is 1.4 µM.
Then `O=[N+]([O-])c1nn(-c2ccc3c(c2)OCCO3)n(O)c1=Nc1ccccc1`, with 12.4 µM.
Then `Cc1nc2c(=O)n(C)c(=O)nc-2n(C)n1`, with 1.88 µM; and `CCCN(CCC)C1=CC(=[N+]2CCCC2)CC(C)(C)C1`, with 2.39 µM; and `Cc1c(C(=O)OCc2ccccc2)[nH]c2c1C(=O)CC(c1ccco1)C2` (configuration not stated), with 10.1 µM.
